Experimental data from patent publication US6822146B2, “Sulfonylurea-tolerant sunflower line M7” (priority 2000, dated 2004).

Columns and labels:
[1] = test system: heterozygous resistant hybrids (C to H); details: in vivo
Description: In a small field trial, the sunflower varieties described in Table 4 were sprayed post-emergence with a variety of sulfonylurea herbicide treatments.
Broadcast post-emergence applications of formulated sulfonylurea herbicides were performed at the 6-leaf development stage using four randomly distributed replications. Application rates were chosen to match the usual use rates of these herbicides in the crops they are registered in Europe. All herbicides except for metsulfuron-methyl were sprayed in combination with Citowet® non-ionic ethoxylated alcohol at 0.25% volume of formulated product per volume of water applied per hectare.
The evaluation of the maximum (i.e. peak) injury to sunflower varieties by sulfonylurea herbicides was measured by visual ratings, which are listed in Table 5. A rating of 0% phytotoxicity means no crop injury. […] A rating of 100% means the complete destruction of all plants.

[2] = test system: Homozygous resistant inbred lines, BC3-M4M12 (I), BC3-M4M11 (J) and BC3-M4M7 (K); assay: Test A summary, homozygous resistant inbred lines; details: in vivo
Summary of the method: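 Field-grown sunflower lines received broadcast post-emergence sulfonylurea herbicides at the 6-leaf stage, at European registered use rates, in four randomized replicates; all but metsulfuron-methyl included Citowet non-ionic surfactant at 0.25% v/v. Peak crop injury was scored visually as % phytotoxicity (0% none, 100% all plants destroyed).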

[3] = test system: Anagallis arvensis; assay: Test H weed control, field plots; type: in vivo; set-up: concentration or dose not given beside the values; details: 36 days after treatment; g a.i./ha: tribenuron-methyl 22.5, metsulfuron-methyl 6, ethametsulfuron-methyl 16, imazapyr isopropylamine salt 15, aclonifen 1200
From the text: (§1) Field plots (2 m×5 m) were tilled to remove weed cover and then seeded in rows with the following weeds: Capsella bursa pastoris, Atriplex patula, Chenopodium album, Stellaria media, Mecurialis annua, Polygonum persicaria, Amaranthus retroflexus, Polygonum convolvulus, Polygonum aviculare, Viola arvensis, Matricaria inodora, Anagallis arvensis, Sinapis arvensis, Setaria viridis, Solanum nigrum and Echinochloa crusgalli. After 21 days from sowing, at which time the weeds had reached the 2- to 6-leaf stage, herbicide treatments were applied to the plots according to a complete randomized block design, with each herbicide treatment triply replicated. The herbicides were sprayed using standard flat fan nozzles moved perpendicular to the sown lines using water spray volumes of about 296 L/ha.
(§2) Assessments of weed control were made by visual inspection 36 days after herbicide treatment. A visual rating system was used based on a percentage scale from 0 to 100% compared to an adjacent untreated control plot. On this scale 0 represents no visual differences relative to an untreated control and 100 represents complete control of the given weed species.

[4] = test system: Polygonum persicaria; assay: Test H weed control, field plots; type: in vivo; set-up: concentration or dose not given beside the values; details: 36 days after treatment; g a.i./ha: tribenuron-methyl 22.5, metsulfuron-methyl 6, ethametsulfuron-methyl 16, imazapyr isopropylamine salt 15, aclonifen 1200
From the text: as §1, §2

[5] = test system: Sinapis arvensis; assay: Test H weed control, field plots; type: in vivo; set-up: concentration or dose not given beside the values; details: 36 days after treatment; g a.i./ha: tribenuron-methyl 22.5, metsulfuron-methyl 6, ethametsulfuron-methyl 16, imazapyr isopropylamine salt 15, aclonifen 1200
From the text: as §1, §2

[6] = test system: Atriplex patula; assay: Test H weed control, field plots; type: in vivo; set-up: concentration or dose not given beside the values; details: 36 days after treatment; g a.i./ha: tribenuron-methyl 22.5, metsulfuron-methyl 6, ethametsulfuron-methyl 16, imazapyr isopropylamine salt 15, aclonifen 1200
From the text: as §1, §2

[7] = test system: Polygonum aviculare; assay: Test H weed control, field plots; type: in vivo; set-up: concentration or dose not given beside the values; details: 36 days after treatment; g a.i./ha: tribenuron-methyl 22.5, metsulfuron-methyl 6, ethametsulfuron-methyl 16, imazapyr isopropylamine salt 15, aclonifen 1200
From the text: as §1, §2

[8] = test system: Amaranthus retroflexus; assay: Test H weed control, field plots; type: in vivo; set-up: concentration or dose not given beside the values; details: 36 days after treatment; g a.i./ha: tribenuron-methyl 22.5, metsulfuron-methyl 6, ethametsulfuron-methyl 16, imazapyr isopropylamine salt 15, aclonifen 1200
From the text: as §1, §2

[9] = test system: Solanum nigrum; assay: Test H weed control, field plots; type: in vivo; set-up: concentration or dose not given beside the values; details: 36 days after treatment; g a.i./ha: tribenuron-methyl 22.5, metsulfuron-methyl 6, ethametsulfuron-methyl 16, imazapyr isopropylamine salt 15, aclonifen 1200
From the text: as §1, §2

[10] = test system: Mercurialis annua; assay: Test H weed control, field plots; type: in vivo; set-up: concentration or dose not given beside the values; details: 36 days after treatment; g a.i./ha: tribenuron-methyl 22.5, metsulfuron-methyl 6, ethametsulfuron-methyl 16, imazapyr isopropylamine salt 15, aclonifen 1200
From the text: as §1, §2

[11] = test system: Viola arvensis; assay: Test H weed control, field plots; type: in vivo; set-up: concentration or dose not given beside the values; details: 36 days after treatment; g a.i./ha: tribenuron-methyl 22.5, metsulfuron-methyl 6, ethametsulfuron-methyl 16, imazapyr isopropylamine salt 15, aclonifen 1200
From the text: as §1, §2

[12] = test system: Capsella bursa pastoris; assay: Test H weed control, field plots; type: in vivo; set-up: concentration or dose not given beside the values; details: 36 days after treatment; g a.i./ha: tribenuron-methyl 22.5, metsulfuron-methyl 6, ethametsulfuron-methyl 16, imazapyr isopropylamine salt 15, aclonifen 1200
From the text: as §1, §2

[13] = test system: Setaria viridis; assay: Test H weed control, field plots; type: in vivo; set-up: concentration or dose not given beside the values; details: 36 days after treatment; g a.i./ha: tribenuron-methyl 22.5, metsulfuron-methyl 6, ethametsulfuron-methyl 16, imazapyr isopropylamine salt 15, aclonifen 1200
From the text: as §1, §2

[14] = test system: Matricaria inodora; assay: Test H weed control, field plots; type: in vivo; set-up: concentration or dose not given beside the values; details: 36 days after treatment; g a.i./ha: tribenuron-methyl 22.5, metsulfuron-methyl 6, ethametsulfuron-methyl 16, imazapyr isopropylamine salt 15, aclonifen 1200
From the text: as §1, §2

[15] = test system: Polygonum convolvulus; assay: Test H weed control, field plots; type: in vivo; set-up: concentration or dose not given beside the values; details: 36 days after treatment; g a.i./ha: tribenuron-methyl 22.5, metsulfuron-methyl 6, ethametsulfuron-methyl 16, imazapyr isopropylamine salt 15, aclonifen 1200
From the text: as §1, §2

[16] = test system: Echinochloa crus-galli; assay: Test H weed control, field plots; type: in vivo; set-up: concentration or dose not given beside the values; details: 36 days after treatment; g a.i./ha: tribenuron-methyl 22.5, metsulfuron-methyl 6, ethametsulfuron-methyl 16, imazapyr isopropylamine salt 15, aclonifen 1200
From the text: as §1, §2

[17] = test system: Weeds Agronomically Important in Sunflower Crops; assay: Test H summary; type: in vivo; details: tribenuron-methyl 22.5 g a.i./ha, metsulfuron-methyl 6 g a.i./ha
From the text: as §1, §2

[18] = test system: Orobanche cumana (Race F); assay: Test F sequential application to control Orobanche cumana; type: in vivo
Description: A greenhouse experiment was performed to identify the best sequential program compared to straight application of tribenuron-methyl or metsulfuron-methyl for control of Orobanche cumana (Race F). The dose range for optimum efficacy was also studied. Both herbicides were used as formulated compositions. […] BC4-M5M7×PHA155 is referred to below as “Hybrid 7”, and BC4-M5M12×PHA155 is referred to below as “Hybrid 12”.
Seed coating treatment was performed as described for Test D. Post-emergence treatments were applied at the 2-4 leaf stage of sunflower (corresponding to early stage of Orobanche attachment; identified as “T1”), the 6 leaf stage of sunflower (corresponding to the mid stage of Orobanche attachment; nodules <5 mm diameter; identified as “T2”) and 8 leaf stage of sunflower (corresponding to late stage of Orobanche attachment; identified as “T3”).
The efficacy was evaluated visually as described for Test D except that the efficacy was assessed ten days later than for Tests D and E. The later evaluation allowed observing any reduction of efficacy due to late Orobanche emergence or re-growth of treated nodules. Efficacy in controlling Orobanche attached to roots was evidenced by nodules comprising black necrotic tissues with no apparent active meristematic area. These nodules could be easily crushed between fingers.

[19] = test system: BC4-M5M12 × PHA155; assay: Test C field phytotoxicity, BC4-M5M12 × PHA155; type: in vivo, sunflower
From the text: A rating of 0% phytotoxicity means no crop injury.

[20] = post-emergence T1 3 + T3 3 g a.i./ha
[21] = post-emergence T1 11.25 + T3 11.25 g a.i./ha
[22] = post-emergence T1 22.5 g a.i./ha
[23] = post-emergence T2 11.25 g a.i./ha
[24] = post-emergence T2 22.5 g a.i./ha
[25] = post-emergence T3 11.25 g a.i./ha
[26] = post-emergence T3 22.5 g a.i./ha
[27] = seed coating 11.25 + post-emergence T2 11.25 g a.i./ha
[28] = seed coating 11.25 + post-emergence T3 11.25 g a.i./ha

Row | Structure (SMILES) | tolerance of heterozygous resistant hybrids C to H [1] | tolerance of homozygous resistant inbred lines I, J, K [2] | weed control, visual rating: Anagallis arvensis [3] [%] | weed control, visual rating: Polygonum persicaria [4] [%] | weed control, visual rating: Sinapis arvensis [5] [%] | weed control, visual rating: Atriplex patula [6] [%] | weed control, visual rating: Polygonum aviculare [7] [%] | weed control, visual rating: Amaranthus retroflexus [8] [%] | weed control, visual rating: Solanum nigrum [9] [%] | weed control, visual rating: Mercurialis annua [10] [%] | weed control, visual rating: Viola arvensis [11] [%] | weed control, visual rating: Capsella bursa pastoris [12] [%] | weed control, visual rating: Setaria viridis [13] [%] | weed control, visual rating: Matricaria inodora [14] [%] | weed control, visual rating: Polygonum convolvulus [15] [%] | weed control, visual rating: Echinochloa crus-galli [16] [%] | weed control spectrum [17] | further results
1 | COC(=O)c1ccccc1S(=O)(=O)NC(=O)Nc1nc(C)nc(OC)n1 [Metsulfuron-methyl, metsulfuron-methyl] | as tolerant as the three homozygous resistant lines | resistant | 100 | 100 | 100 | 100 | 100 | 99 | 97 | 100 | 100 | 100 | 47 | 100 | 92 | 47 | excellent broad-spectrum weed control | % Control in Hybrid 7 [18, 20]: 92%; % Control in Hybrid 12 [18, 20]: 90%; % Control in Hybrid 7 ([18]; post-emergence T1 3 g a.i./ha): 65%; % Control in Hybrid 12 ([18]; post-emergence T1 3 g a.i./ha): 63%; % Control in Hybrid 7 ([18]; post-emergence T3 3 g a.i./ha): 93%; % Control in Hybrid 12 ([18]; post-emergence T3 3 g a.i./ha): 95%; control of Orobanche ([18]; single late post-emergence treatment with 3 g a.i./ha): excellent control
2 | COC(=O)c1ccccc1S(=O)(=O)NC(=O)N(C)c1nc(C)nc(OC)n1 [Tribenuron-methyl, tribenuron-methyl] | as tolerant as the three homozygous resistant lines | resistant | 100 | 100 | 100 | 100 | 90 | 93 | 100 | 100 | 100 | 100 | 65 | 100 | 93 | 65 | excellent broad-spectrum weed control | Phytotoxicity Rating After Treatment ([19]; postemergence 11.25 g a.i./ha, 15 DAT): 18%; rate needed for good control of Orobanche ([18]; greenhouse test, Hybrid 7 and Hybrid 12): 22.5 g a.i./ha; % Control in Hybrid 7 [18, 21]: 85%; % Control in Hybrid 12 [18, 21]: 85%; % Control in Hybrid 7 [18, 22]: 72%; % Control in Hybrid 12 [18, 22]: 73%; % Control in Hybrid 7 [18, 23]: 77%; % Control in Hybrid 12 [18, 23]: 73%; % Control in Hybrid 7 [18, 24]: 82%; % Control in Hybrid 12 [18, 24]: 83%; % Control in Hybrid 7 [18, 25]: 78%; % Control in Hybrid 12 [18, 25]: 80%; % Control in Hybrid 7 [18, 26]: 87%; % Control in Hybrid 12 [18, 26]: 87%; % Control in Hybrid 7 [18, 27]: 77%; % Control in Hybrid 12 [18, 27]: 78%; % Control in Hybrid 7 [18, 28]: 82%; % Control in Hybrid 12 [18, 28]: 83%
3 | COC(=O)c1cccc(C)c1S(=O)(=O)NC(=O)Nc1nc(OCC(F)(F)F)nc(N(C)C)n1 [Triflusulfuron-methyl, triflusulfuron-methyl] |  |  |  |  |  |  |  |  |  |  |  |  |  |  |  |  |  | Phytotoxicity Rating After Treatment ([19]; postemergence 7.5 g a.i./ha, 7 DAT): 22%; Phytotoxicity Rating After Treatment ([19]; postemergence 7.5 g a.i./ha, 15 DAT): 22%; Phytotoxicity Rating After Treatment ([19]; postemergence 7.5 g a.i./ha, 30 DAT): 25%; Phytotoxicity Rating After Treatment ([19]; postemergence 15 g a.i./ha, 7 DAT): 38%; Phytotoxicity Rating After Treatment ([19]; postemergence 15 g a.i./ha, 15 DAT): 45%; Phytotoxicity Rating After Treatment ([19]; postemergence 15 g a.i./ha, 30 DAT): 43%
